Source: ChEMBL document CHEMBL5393442, “Combined inhibition of amino acid transporters for inhibiting human plasmacytoid dendritic cell activity during autoimmunity” (2022)
pIC50: −log10 of the molar value. Active and inactive are the calls of the source. No cut-off for these calls is given here.

Assays:
[1] = target: T1, Cystine/glutamate transporter (Homo sapiens, UniProt Q9UPY5); experiment: Inhibition of XCT (unknown origin)
T1 sequence (Q9UPY5 whole entry): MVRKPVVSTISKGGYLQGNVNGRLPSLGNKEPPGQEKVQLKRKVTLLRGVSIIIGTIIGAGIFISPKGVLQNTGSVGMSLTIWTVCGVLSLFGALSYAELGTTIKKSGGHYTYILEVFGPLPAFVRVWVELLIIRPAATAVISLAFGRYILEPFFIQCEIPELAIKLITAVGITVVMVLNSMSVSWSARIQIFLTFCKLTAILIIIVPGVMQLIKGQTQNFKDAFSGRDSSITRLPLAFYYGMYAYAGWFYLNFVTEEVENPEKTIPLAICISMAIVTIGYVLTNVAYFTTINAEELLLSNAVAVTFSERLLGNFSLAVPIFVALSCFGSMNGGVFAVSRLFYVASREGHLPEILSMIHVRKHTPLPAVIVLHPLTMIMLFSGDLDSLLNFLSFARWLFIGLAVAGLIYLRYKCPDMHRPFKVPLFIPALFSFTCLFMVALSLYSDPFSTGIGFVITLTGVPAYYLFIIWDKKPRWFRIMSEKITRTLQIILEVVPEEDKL

[2] = target: Glyceraldehyde-3-phosphate dehydrogenase (Homo sapiens) (UniProt P04406); experiment: Inhibition of GAPDH in CpG-A-stimulated human plasmacytoid dendritic cells at 10 uM assessed as reduction in TNF production; format: cell-based; conditions: Plasmacytoid dendritic cell
Sequence of Glyceraldehyde-3-phosphate dehydrogenase (Homo sapiens) (P04406 2-335 limits assumed): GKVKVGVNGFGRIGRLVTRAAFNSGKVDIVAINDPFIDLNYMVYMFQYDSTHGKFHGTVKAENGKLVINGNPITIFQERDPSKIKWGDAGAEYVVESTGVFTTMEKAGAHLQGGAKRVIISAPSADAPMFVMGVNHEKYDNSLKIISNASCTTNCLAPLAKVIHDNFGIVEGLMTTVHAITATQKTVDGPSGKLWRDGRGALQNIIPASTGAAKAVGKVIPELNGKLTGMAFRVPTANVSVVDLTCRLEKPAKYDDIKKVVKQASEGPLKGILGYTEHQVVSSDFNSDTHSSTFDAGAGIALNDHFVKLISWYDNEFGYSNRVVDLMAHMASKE

[3] = target: Glyceraldehyde-3-phosphate dehydrogenase (Homo sapiens) (UniProt P04406); experiment: Inhibition of GAPDH in CpG-A-stimulated human plasmacytoid dendritic cells at 10 uM assessed as reduction in IFNa-alpha production; format: cell-based; conditions: Plasmacytoid dendritic cell
[4] = target: Glyceraldehyde-3-phosphate dehydrogenase (Homo sapiens) (UniProt P04406); experiment: Inhibition of GAPDH in CpG-A-stimulated human plasmacytoid dendritic cells at 10 uM assessed as reduction in overall protein synthesis; format: cell-based; conditions: Plasmacytoid dendritic cell
[5] = target: Glyceraldehyde-3-phosphate dehydrogenase (Homo sapiens) (UniProt P04406); experiment: Inhibition of GAPDH in CpG-A-stimulated human plasmacytoid dendritic cells at 10 uM assessed as reduction in secreted lactate levels; format: cell-based; conditions: Plasmacytoid dendritic cell
[6] = target: Glyceraldehyde-3-phosphate dehydrogenase (Homo sapiens) (UniProt P04406); experiment: Inhibition of GAPDH in CpG-A-stimulated human plasmacytoid dendritic cells at 10 uM assessed as reduction in IFN-alpha production in presence of 1 uM oligomycin; format: cell-based; conditions: Plasmacytoid dendritic cell
[7] = target: Glyceraldehyde-3-phosphate dehydrogenase (Homo sapiens) (UniProt P04406); experiment: Inhibition of GAPDH in CpG-A-stimulated human plasmacytoid dendritic cells at 10 uM assessed as reduction in TNF production in presence of 1 uM oligomycin; format: cell-based; conditions: Plasmacytoid dendritic cell
[8] = target: T2, Cystine/glutamate transporter (Homo sapiens) (UniProt Q9UPY5); experiment: Inhibition of XCT in CpG-A-activated human plasmacytoid dendritic cells at 25 to 100 uM assessed as decrease in TNF production in presence of 100 uM sulfasalazine; format: cell-based; conditions: Plasmacytoid dendritic cell, dose 25-100 µM
T2 sequence (whole entry): T1 sequence (Q9UPY5 whole entry)

[9] = system: Plasmacytoid dendritic cell; experiment: Inhibition of mTORC1/mTORC2 in TLR9-activated human plasmacytoid dendritic cells at 1 uM assessed as decrease in CpG-A stimulated SLC7A11 expression; format: cell-based
[10] = target: Large neutral amino acids transporter small subunit 1 (Homo sapiens) (UniProt Q01650); experiment: Inhibition of human LAT1 at 100 uM relative to control
Sequence of Large neutral amino acids transporter small subunit 1 (Homo sapiens) (Q01650 whole entry): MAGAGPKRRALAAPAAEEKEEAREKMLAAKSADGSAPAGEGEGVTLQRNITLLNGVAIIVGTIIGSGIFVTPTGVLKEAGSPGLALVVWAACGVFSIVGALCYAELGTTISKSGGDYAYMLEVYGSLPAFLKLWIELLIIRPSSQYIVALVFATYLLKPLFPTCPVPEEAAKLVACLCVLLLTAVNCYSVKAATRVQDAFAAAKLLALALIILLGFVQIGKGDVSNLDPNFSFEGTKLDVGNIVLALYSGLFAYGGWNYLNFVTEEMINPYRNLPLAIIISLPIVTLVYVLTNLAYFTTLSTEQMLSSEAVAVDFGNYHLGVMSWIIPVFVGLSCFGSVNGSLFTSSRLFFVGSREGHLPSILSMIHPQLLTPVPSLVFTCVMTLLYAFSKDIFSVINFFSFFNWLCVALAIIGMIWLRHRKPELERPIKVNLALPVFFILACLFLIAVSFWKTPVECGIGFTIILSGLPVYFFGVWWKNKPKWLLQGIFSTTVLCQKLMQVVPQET

[11] = system: Plasmacytoid dendritic cell; experiment: Inhibition of F1F0-ATP synthase in human plasmacytoid dendritic cells at 1 uM assessed as decrease in IFN-alpha production; format: cell-based
[12] = system: Plasmacytoid dendritic cell; experiment: Inhibition of F1F0-ATP synthase in human plasmacytoid dendritic cells at 1 uM assessed as decrease in TNF production; format: cell-based
[13] = system: Plasmacytoid dendritic cell; experiment: Inhibition of F1F0-ATP synthase in CpG-A-stimulated human plasmacytoid dendritic cells at 1 uM assessed as reduction in IFN-alpha production in presence of 10 uM heptelidic acid; format: cell-based
[14] = system: Plasmacytoid dendritic cell; experiment: Inhibition of F1F0-ATP synthase in CpG-A-stimulated human plasmacytoid dendritic cells at 1 uM assessed as reduction in TNF production in presence of 10 uM heptelidic acid; format: cell-based
[15] = target: Tyrosine-protein kinase JAK2 (Homo sapiens) (UniProt O60674); experiment: Inhibition of JAK2 in TLR9-activated human plasmacytoid dendritic cells at 20 nM assessed as decrease in CpG-A stimulated SLC7A11 expression; format: cell-based; conditions: Plasmacytoid dendritic cell
Sequence of Tyrosine-protein kinase JAK2 (Homo sapiens) (O60674 whole entry): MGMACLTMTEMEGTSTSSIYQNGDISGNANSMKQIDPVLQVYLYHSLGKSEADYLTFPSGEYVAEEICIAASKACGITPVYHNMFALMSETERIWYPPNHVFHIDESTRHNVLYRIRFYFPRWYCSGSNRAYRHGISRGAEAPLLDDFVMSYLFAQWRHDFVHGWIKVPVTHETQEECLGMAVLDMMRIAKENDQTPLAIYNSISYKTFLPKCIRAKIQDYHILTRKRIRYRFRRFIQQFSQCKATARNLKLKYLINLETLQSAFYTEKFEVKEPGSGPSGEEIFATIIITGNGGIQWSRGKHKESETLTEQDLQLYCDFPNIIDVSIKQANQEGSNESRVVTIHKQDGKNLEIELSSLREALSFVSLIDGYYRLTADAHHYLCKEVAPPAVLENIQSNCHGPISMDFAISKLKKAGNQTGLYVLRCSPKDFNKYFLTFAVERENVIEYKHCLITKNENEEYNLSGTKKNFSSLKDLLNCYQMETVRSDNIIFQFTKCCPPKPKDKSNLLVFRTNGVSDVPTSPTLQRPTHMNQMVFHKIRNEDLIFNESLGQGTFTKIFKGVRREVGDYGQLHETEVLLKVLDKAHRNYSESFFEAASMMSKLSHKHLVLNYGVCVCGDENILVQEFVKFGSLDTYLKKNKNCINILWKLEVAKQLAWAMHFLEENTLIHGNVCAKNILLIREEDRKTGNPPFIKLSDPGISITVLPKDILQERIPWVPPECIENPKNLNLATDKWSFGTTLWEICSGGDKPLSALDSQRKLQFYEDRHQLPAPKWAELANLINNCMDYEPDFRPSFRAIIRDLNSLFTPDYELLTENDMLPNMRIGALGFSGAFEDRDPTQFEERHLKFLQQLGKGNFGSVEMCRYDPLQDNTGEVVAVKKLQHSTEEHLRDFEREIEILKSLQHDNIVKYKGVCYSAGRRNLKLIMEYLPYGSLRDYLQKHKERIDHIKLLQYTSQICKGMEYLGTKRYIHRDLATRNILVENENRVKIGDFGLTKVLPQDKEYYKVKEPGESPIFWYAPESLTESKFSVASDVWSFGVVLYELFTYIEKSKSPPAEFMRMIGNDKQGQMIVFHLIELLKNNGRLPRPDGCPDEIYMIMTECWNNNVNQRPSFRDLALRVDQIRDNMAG

[16] = target: Tyrosine-protein kinase JAK2 (Homo sapiens) (UniProt O60674); experiment: Inhibition of JAK2 in IL3- and CpG-A-activated human plasmacytoid dendritic cells at 20 nM assessed as decrease in ENPP2/IFNA2 expression; format: cell-based; conditions: Plasmacytoid dendritic cell
[17] = target: Tyrosine-protein kinase JAK2 (Homo sapiens) (UniProt O60674); experiment: Inhibition of JAK2 in IL3- and CpG-A-activated human plasmacytoid dendritic cells at 20 nM assessed as decrease in MYO1E/IFNA2 expression; format: cell-based; conditions: Plasmacytoid dendritic cell
mTORC1 (Homo sapiens) [18] = target: T3, mTORC1 (Homo sapiens) (UniProt P42345+Q8N122+Q9BVC4); conditions: Plasmacytoid dendritic cell, dose 250.0 nM
T3 sequence (Q8N122 whole entry, looked up, other chains not shown): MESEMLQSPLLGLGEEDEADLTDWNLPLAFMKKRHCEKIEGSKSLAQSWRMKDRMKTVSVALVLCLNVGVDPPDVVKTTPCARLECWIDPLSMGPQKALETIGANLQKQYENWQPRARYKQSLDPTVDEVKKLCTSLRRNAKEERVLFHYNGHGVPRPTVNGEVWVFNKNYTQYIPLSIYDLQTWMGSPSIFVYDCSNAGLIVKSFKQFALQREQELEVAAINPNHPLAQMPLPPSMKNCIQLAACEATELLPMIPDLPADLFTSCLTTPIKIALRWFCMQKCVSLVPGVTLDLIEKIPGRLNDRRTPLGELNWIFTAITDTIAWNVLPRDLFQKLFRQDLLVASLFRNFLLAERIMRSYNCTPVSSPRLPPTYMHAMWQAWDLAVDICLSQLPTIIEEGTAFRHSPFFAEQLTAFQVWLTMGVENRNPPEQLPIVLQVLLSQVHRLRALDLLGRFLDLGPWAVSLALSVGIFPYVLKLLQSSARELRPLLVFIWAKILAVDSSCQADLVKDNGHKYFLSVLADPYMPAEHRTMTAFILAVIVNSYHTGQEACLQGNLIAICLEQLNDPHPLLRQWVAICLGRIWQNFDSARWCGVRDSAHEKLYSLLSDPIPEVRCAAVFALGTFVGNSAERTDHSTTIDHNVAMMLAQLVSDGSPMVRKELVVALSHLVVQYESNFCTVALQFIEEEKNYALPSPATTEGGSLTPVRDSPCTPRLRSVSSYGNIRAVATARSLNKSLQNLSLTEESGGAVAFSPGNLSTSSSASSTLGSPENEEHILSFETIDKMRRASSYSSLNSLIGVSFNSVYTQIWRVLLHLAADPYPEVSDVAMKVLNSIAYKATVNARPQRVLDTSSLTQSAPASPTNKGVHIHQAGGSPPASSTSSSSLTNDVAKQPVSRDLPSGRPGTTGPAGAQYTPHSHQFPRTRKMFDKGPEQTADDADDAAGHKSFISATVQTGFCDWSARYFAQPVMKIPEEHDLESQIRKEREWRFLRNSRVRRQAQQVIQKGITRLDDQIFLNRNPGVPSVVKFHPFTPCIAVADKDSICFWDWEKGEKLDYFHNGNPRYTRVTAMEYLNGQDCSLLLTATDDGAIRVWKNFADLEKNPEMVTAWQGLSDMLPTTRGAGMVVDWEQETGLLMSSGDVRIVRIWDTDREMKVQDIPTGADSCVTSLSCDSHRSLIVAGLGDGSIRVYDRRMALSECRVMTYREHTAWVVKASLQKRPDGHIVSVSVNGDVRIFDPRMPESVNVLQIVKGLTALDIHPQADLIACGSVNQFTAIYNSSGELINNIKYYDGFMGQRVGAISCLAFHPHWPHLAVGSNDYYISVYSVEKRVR
T3 sequence (Q9BVC4 whole entry, looked up, other chains not shown): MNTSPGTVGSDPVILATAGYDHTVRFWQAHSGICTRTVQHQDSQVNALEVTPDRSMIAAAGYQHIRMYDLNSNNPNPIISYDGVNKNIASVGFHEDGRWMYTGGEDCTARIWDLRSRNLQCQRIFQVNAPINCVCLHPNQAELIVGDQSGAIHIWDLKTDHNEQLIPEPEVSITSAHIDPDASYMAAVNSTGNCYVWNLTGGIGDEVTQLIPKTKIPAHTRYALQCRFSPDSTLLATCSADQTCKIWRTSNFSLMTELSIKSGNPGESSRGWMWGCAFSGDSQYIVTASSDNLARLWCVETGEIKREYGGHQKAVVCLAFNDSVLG
Description: Inhibition of mTORC1 in CpG-A-stimulated human plasmacytoid dendritic cells at 250 nM assessed as decrease in lactate release

mTORC1 (Homo sapiens) [19] = target: T3, mTORC1 (Homo sapiens); conditions: Plasmacytoid dendritic cell, dose 20.0 nM
Description: Inhibition of mTORC1 in CpG-A-stimulated human plasmacytoid dendritic cells at 20 nM assessed as decrease in lactate release

[20] = target: T2, Cystine/glutamate transporter (Homo sapiens); experiment: Inhibition of XCT in CpG-A-activated human plasmacytoid dendritic cells at 200 uM assessed as decrease in IFN-alpha production; format: cell-based; conditions: Plasmacytoid dendritic cell
[21] = target: T2, Cystine/glutamate transporter (Homo sapiens); experiment: Inhibition of XCT in CpG-A-activated human plasmacytoid dendritic cells at 200 uM assessed as decrease in TNF production; format: cell-based; conditions: Plasmacytoid dendritic cell
[22] = target: T2, Cystine/glutamate transporter (Homo sapiens); experiment: Inhibition of XCT in CpG-A-activated human plasmacytoid dendritic cells at 200 uM assessed as decrease in S6 phosphorylation; format: cell-based; conditions: Plasmacytoid dendritic cell
[23] = target: T2, Cystine/glutamate transporter (Homo sapiens); experiment: Inhibition of XCT in CpG-A-activated human plasmacytoid dendritic cells at 200 uM assessed as decrease in kynurenine uptake; format: cell-based; conditions: Plasmacytoid dendritic cell
[24] = target: T2, Cystine/glutamate transporter (Homo sapiens); experiment: Inhibition of XCT in CpG-A-activated human plasmacytoid dendritic cells at 200 uM assessed as decrease in ENPP2 expression; format: cell-based; conditions: Plasmacytoid dendritic cell
[25] = target: T2, Cystine/glutamate transporter (Homo sapiens); experiment: Inhibition of XCT in CpG-A-activated human plasmacytoid dendritic cells at 200 uM assessed as decrease in MYO1E expression; format: cell-based; conditions: Plasmacytoid dendritic cell
[26] = target: T2, Cystine/glutamate transporter (Homo sapiens); experiment: Inhibition of XCT in CpG-A-activated human plasmacytoid dendritic cells at 100 uM assessed as decrease in IFN-alpha production in presence of 25 to 100 uM baricitinib; format: cell-based; conditions: Plasmacytoid dendritic cell
[27] = target: Tyrosine-protein kinase JAK2 (Homo sapiens) (UniProt O60674); experiment: Inhibition of JAK2 in CpG-A-activated human plasmacytoid dendritic cells at 100 uM assessed as decrease in TNF production in presence of 25 to 100 uM baricitinib; format: cell-based; conditions: Plasmacytoid dendritic cell
[28] = system: Plasmacytoid dendritic cell; experiment: Inhibition of mTORC1/mTORC2 in CpG-A and IL-3-activated human plasmacytoid dendritic cells at 200 ng/mL assessed as decrease in SLC7A5 expression; format: cell-based
[29] = system: Plasmacytoid dendritic cell; experiment: Inhibition of mTORC1/mTORC2 in CpG-A and IL-3-activated human plasmacytoid dendritic cells at 200 ng/mL assessed as decrease in SLC3A2 expression; format: cell-based
[30] = system: Plasmacytoid dendritic cell; experiment: Inhibition of mTORC1/mTORC2 in CpG-A and IL-3-activated human plasmacytoid dendritic cells at 200 ng/mL assessed as decrease in IFN-alpha production; format: cell-based
[31] = system: Plasmacytoid dendritic cell; experiment: Inhibition of mTORC1/mTORC2 in CpG-A and IL-3-activated human plasmacytoid dendritic cells at 200 ng/mL assessed as decrease in TNF production; format: cell-based
[32] = system: Plasmacytoid dendritic cell; experiment: Inhibition of mTORC1/mTORC2 in IL-3 and CpG-A-activated human plasmacytoid dendritic cells at 200 nM assessed as decrease in decrease in ENPP2/IFNA2 expression; format: cell-based
[33] = system: Plasmacytoid dendritic cell; experiment: Inhibition of mTORC1/mTORC2 in IL-3 and CpG-A-activated human plasmacytoid dendritic cells at 200 nM assessed as decrease in decrease in MYO1E/IFNA2 expression; format: cell-based
[34] = target: T2, Cystine/glutamate transporter (Homo sapiens); experiment: Inhibition of XCT in CpG-A-activated human plasmacytoid dendritic cells at 5 uM assessed as decrease in IFN-alpha production; format: cell-based; conditions: Plasmacytoid dendritic cell
[35] = target: T2, Cystine/glutamate transporter (Homo sapiens); experiment: Inhibition of XCT in CpG-A-activated human plasmacytoid dendritic cells at 5 uM assessed as decrease in TNF production; format: cell-based; conditions: Plasmacytoid dendritic cell
[36] = target: T2, Cystine/glutamate transporter (Homo sapiens); experiment: Inhibition of XCT in CpG-A-activated human plasmacytoid dendritic cells at 5 uM assessed as decrease in S6 phosphorylation; format: cell-based; conditions: Plasmacytoid dendritic cell
[37] = target: T2, Cystine/glutamate transporter (Homo sapiens); experiment: Inhibition of XCT in CpG-A-activated human plasmacytoid dendritic cells at 5 uM assessed as decrease in kynurenine uptake; format: cell-based; conditions: Plasmacytoid dendritic cell
[38] = target: T2, Cystine/glutamate transporter (Homo sapiens); experiment: Inhibition of XCT in CpG-A-activated human plasmacytoid dendritic cells at 1 uM assessed as decrease in IFN-alpha production; format: cell-based; conditions: Plasmacytoid dendritic cell
[39] = target: T2, Cystine/glutamate transporter (Homo sapiens); experiment: Inhibition of XCT in CpG-A-activated human plasmacytoid dendritic cells at 1 uM assessed as decrease in TNF production; format: cell-based; conditions: Plasmacytoid dendritic cell
[40] = target: T2, Cystine/glutamate transporter (Homo sapiens); experiment: Inhibition of XCT in CpG-A-activated human plasmacytoid dendritic cells at 10 uM assessed as decrease in ENPP2 expression; format: cell-based; conditions: Plasmacytoid dendritic cell
[41] = target: T2, Cystine/glutamate transporter (Homo sapiens); experiment: Inhibition of XCT in CpG-A-activated human plasmacytoid dendritic cells at 10 uM assessed as decrease in MYO1E expression; format: cell-based; conditions: Plasmacytoid dendritic cell
[42] = system: Plasmacytoid dendritic cell; experiment: Inhibition of SLC7A5/SLC3A2 in CpG-A-stimulated human plasmacytoid dendritic cells at 10 uM assessed as decrease in kynurenine transport; format: cell-based

Nc1c(/N=N/c2ccc(Oc3ccc(/N=N/c4cc(S(=O)(=O)O)c5ccccc5c4N)cc3)cc2)cc(S(=O)(=O)O)c2ccccc12
pIC50 [1]: 4.96

CC(C)[C@H]1CC[C@@]2(CO2)[C@H]2C(=O)OCC(C(=O)O)=C[C@H]12
inhibition [2]: Active | inhibition [3]: Active | inhibition [4]: Active | inhibition [5]: Active | inhibition [6]: Active | inhibition [7]: Active

Nc1c(/N=N/c2ccc(Br)cc2)cc(S(=O)(=O)O)c2ccccc12
pIC50 [1]: 4.60

CCS(=O)(=O)N1CC(CC#N)(n2cc(-c3ncnc4[nH]ccc34)cn2)C1
inhibition [8]: Active

Cc1cc(Nc2nc(N[C@@H](C)c3ncc(F)cn3)ncc2Cl)[nH]n1
inhibition [9]: Active

FC(F)(F)Oc1ccc(/N=c2\ssnc2Cl)cc1Cl
inhibition [10]: > 90%

CC[C@H]1/C=C/C=C/C[C@@H](C)[C@H](O)[C@@](C)(O)C(=O)[C@@H](C)[C@H](O)[C@@H](C)C(=O)[C@@H](C)[C@H](O)[C@@H](C)/C=C/C(=O)O[C@@H]2[C@H](C)[C@H](CC1)O[C@]1(CC[C@H](C)[C@H](C[C@@H](C)O)O1)[C@H]2C
inhibition [11]: Active | inhibition [12]: inactive | inhibition [13]: Active | inhibition [14]: Active

CO[C@H]1CC2CC[C@@H](C)[C@@](O)(O2)C(=O)C(=O)N2CCCC[C@H]2C(=O)O[C@H]([C@H](C)C[C@@H]2CC[C@@H](O)[C@H](OC)C2)CC(=O)[C@H](C)/C=C(\C)[C@@H](O)[C@@H](OC)C(=O)[C@H](C)C[C@H](C)/C=C/C=C/C=C/1C
inhibition [15]: Active | inhibition [16]: Active | inhibition [17]: Active | inhibition (mTORC1 (Homo sapiens) [18]): Active | inhibition (mTORC1 (Homo sapiens) [19]): Active

N#Cc1cc(Cl)ccc1/N=c1\ssnc1Cl
inhibition [10]: > 90%

O=C(O)c1cc(/N=N/c2ccc(S(=O)(=O)Nc3ccccn3)cc2)ccc1O [SULFASALAZINE]
inhibition [20]: Active | inhibition [21]: Active | inhibition [22]: Active | inhibition [23]: Active | inhibition [24]: Active | inhibition [25]: Active | inhibition [26]: Active | inhibition [27]: Active | pIC50 [1]: 4.98

Nc1ccc(/N=N/c2ccc(-c3ccc(/N=N/c4ccc(N)c5ccc(S(=O)(=O)O)cc45)cc3)cc2)c2cc(S(=O)(=O)O)ccc12
pIC50 [1]: 5.37

Nc1c(/N=N/c2ccc(SSc3ccc(/N=N/c4cc(S(=O)(=O)O)c5ccccc5c4N)cc3)cc2)cc(S(=O)(=O)O)c2ccccc12
pIC50 [1]: 5.37

CCC(=O)N1CCN(c2ccc(-n3c(=O)ccc4cnc5ccc(-c6cnc7ccccc7c6)cc5c43)cc2C(F)(F)F)CC1
inhibition [28]: Active | inhibition [29]: Active | inhibition [30]: Active | inhibition [31]: Active | inhibition [9]: Active | inhibition [32]: Active | inhibition [33]: Active

Nc1c(/N=N/c2ccc(I)cc2)cc(S(=O)(=O)O)c2ccccc12
pIC50 [1]: 4.85

Nc1c(/N=N/c2ccc(Oc3ccccc3)cc2)cc(S(=O)(=O)O)c2ccccc12
pIC50 [1]: 4.85

CCOc1ccccc1-n1c(C(C)N2CCN(C(=O)COc3ccc(Cl)cc3)CC2)nc2ccccc2c1=O (stereo not given)
inhibition [34]: Active | inhibition [35]: Active | inhibition [36]: Active | inhibition [37]: Active | inhibition [38]: Active | inhibition [39]: Active | inhibition [40]: Active | inhibition [41]: Active

NC1(C(=O)O)CC2CCC1C2 (stereo not given)
inhibition [42]: Active
